In data set [1] the target is Hydroxycarboxylic acid receptor 2 (Homo sapiens) (UniProt Q8TDS4). Put plainly: Displacement of [3H]nicotinic acid from human GPR109A receptor expressed in CHO-K1 cells at 25 uM. It counts as cell-based. In general terms: Loss of bound radioactivity is the signal in a displacement assay; it reports binding, not function.
Data set [2] has the same target. Put plainly: Displacement of [3H]nicotinic acid from human GPR109A receptor expressed in CHO-K1 cells at 2.5 uM. It counts as cell-based.
Data set [3] in a line: Volume of distribution at steady state in mouse. Conditions: in vivo, read-out: Vdss. The class given is ADME, organism-based.
Data set [4] can be described thus: Cmax in mouse. It counts as ADME, organism-based. To be noted: in vivo.
Data set [5] has as its system Mus musculus. Put plainly: Induction of vasodilation in mouse assessed as arbitrary units from vasodilation AUC curve at 100 mg/kg. It counts as functional.
Data set [6] in a line: Oral bioavailability in mouse. It counts as ADME, organism-based. Conditions: in vivo.
The nature of data set [7]: Plasma clearance in mouse. It counts as ADME, organism-based.
Data set [8] can be described thus: Half life in mouse. The class given is ADME, organism-based. To be noted: in vivo.

Consider `O=C(COc1ccccc1)Nc1ccccc1C(=O)O`, for which the Activity in data set [1] was determined as 40%; in data set [2], 78%.
As for `COc1ccc(OCC(=O)Nc2ccccc2C(=O)O)cc1`, the Activity in data set [1] worked out at 33%; in data set [2] it was 69%.
As usually defined, the Cmax is the highest concentration seen after dosing. What is called bioavailability is dose-corrected exposure relative to a reference, in per cent. Low readings indicate poor availability, high ones good availability. By clearance is commonly meant the rate of elimination divided by the concentration. Broadly, the half-life is how long it takes for the measured level to halve. A higher half-life goes with slow loss. With `O=C(CCc1ccc2cc(O)ccc2c1)Nc1ccccc1C(=O)O`, the Vd in data set [3] came to 0.7 L/kg. The molecule further displayed a Cmax in data set [4] of 6.6 µM. In data set [5], the Activity is listed as 59. This molecule showed a bioavailability in data set [6] of 55%. The molecule also displayed a clearance in data set [7] of 6.2 mL/min/kg. In data set [8], this molecule had a half-life of 3.2 h.
As to `O=C(O)c1cccnc1` [NIACIN], in data set [5], the Activity is recorded as 707.
Take `O=C(CCc1ccccc1)Nc1ccccc1C(=O)O`: the Activity in data set [1] is 52%; in data set [2], 88%.

The record behind these values is ChEMBL document CHEMBL1144179, “Molecular modeling aided design of nicotinic acid receptor GPR109A agonists” (Bioorg Med Chem Lett, 2008).
